The results in this text go back to patent US20250276983A1, “COMPOUNDS AND METHODS FOR MODULATING HER2” (IAMBIC THERAPEUTICS, INC., priority 2022, published 2025).

Format in all cases: cell-based
In test [1] the test system is BaF3_EGFRWT cells. In words: Cell growth inhibition assay, BaF3_EGFRWT. To be noted: 72 h, 80 ng/mL recombinant human EGF, 3 days treatment, CellTiterGlo 2.0, read-out: EGFR WT IC50 (nM), cell growth inhibition.
Test [2] deals with BaF3_HER2YVMA cells. Kind of test: Cell growth inhibition assay, BaF3_HER2YVMA. The conditions noted are these: 72 h, BaF3_HER2YVMA cells, 3 days treatment, CellTiterGlo 2.0; read-out: HER2-YVMA IC50 (nM), cell growth inhibition. On the technique in general: Cellular ATP, detected with luciferase, serves as a proxy for viable cell number.
For test [3], the system named is BaF3_HER2WT cells. In words: Cell growth inhibition assay, BaF3_HER2WT. To be noted: 72 h, 3 days treatment, CellTiterGlo 2.0, read-out: HER2 WT IC50 (nM), cell growth inhibition.

What is called IC50 is the point on the concentration scale where inhibition reaches its midpoint. On to `Cc1cc(Nc2ncnn3ccc(C4CN(C(=O)/C=C/CN(C)C)C4)c23)ccc1Oc1cc2ncnn2cn1` [Example 158, (E)-1-(3-(4-((4-([1,2,4]triazolo[1,5-c]pyrimidin-7-yloxy)-3-methylphenyl)amino)pyrrolo[2,1-f][1,2,4]triazin-5-yl)azetidin-1-yl)-4-(dimethylamino)but-2-en-1-one], for which the IC50 in test [1] is 500 to 1500 nM; in test [2] it was less than 200 nM; in test [3], less than 200 nM.

As to `Cc1cc(Nc2ncnn3ccc(C4CN(C(=O)/C=C/C56CCCN5CCC6)C4)c23)ccc1Oc1ccn2ncnc2c1` [Example 159, (E)-1-(3-(4-((4-([1,2,4]triazolo[1,5-a]pyridin-7-yloxy)-3-methylphenyl)amino)pyrrolo[2,1-f][1,2,4]triazin-5-yl)azetidin-1-yl)-3-(tetrahydro-1H-pyrrolizin-7a(5H)-yl)prop-2-en-1-one], the half-maximal inhibitory concentration (IC50) is 1500 to 5000 nM in test [1], less than 200 nM in test [2] and less than 200 nM in test [3].

As to `Cc1cc(Nc2ncnn3ccc(C4CN(C(=O)/C=C\C56CCCN5CCC6)C4)c23)ccc1Oc1ccn2ncnc2c1` [Example 160, (Z)-1-(3-(4-((4-([1,2,4]triazolo[1,5-a]pyridin-7-yloxy)-3-methylphenyl)amino)pyrrolo[2,1-f][1,2,4]triazin-5-yl)azetidin-1-yl)-3-(tetrahydro-1H-pyrrolizin-7a(5H)-yl)prop-2-en-1-one], the results for the IC50 in test [1], in test [2] and in test [3] were 1500 to 5000 nM, less than 200 nM and less than 200 nM, respectively.

Take `Cc1cc(Nc2ncnn3ccc(C4CN(C(=O)/C=C/CN5CC(F)C5)C4)c23)ccc1Oc1ccc2c(c1)ncn2C` [Example 161, (E)-4-(3-fluoroazetidin-1-yl)-1-(3-(4-((3-methyl-4-((1-methyl-1H-benzo[d]imidazol-5-yl)oxy)phenyl)amino)pyrrolo[2,1-f][1,2,4]triazin-5-yl)azetidin-1-yl)but-2-en-1-one]: the values for the IC50 in test [1], in test [2] and in test [3] were 1500 to 5000 nM, less than 200 nM and less than 200 nM, respectively.

As for `Cc1cc(Nc2ncnn3ccc(C4CCN(C(=O)/C=C/CN5CC(F)C5)CC4)c23)ccc1Oc1ccc2c(c1)ncn2C` [Example 162, (E)-4-(3-fluoroazetidin-1-yl)-1-(4-(4-((3-methyl-4-((1-methyl-1H-benzo[d]imidazol-5-yl)oxy)phenyl)amino)pyrrolo[2,1-f][1,2,4]triazin-5-yl)piperidin-1-yl)but-2-en-1-one], the figures for the IC50 in test [1], in test [2] and in test [3] were 1500 to 5000 nM, 500 to 1500 nM and 200 to 500 nM, respectively.

With `Cc1cc(Nc2ncnn3ccc(C4CCN(C(=O)/C=C/CN5CC(F)C5)CC4)c23)ccc1Oc1ccn2ncnc2c1` [Example 163], the IC50 is 1500 to 5000 nM in test [1], less than 200 nM in test [2] and less than 200 nM in test [3].

For the compound `Cc1cc(Nc2ncnn3ccc(C4CCN(C(=O)/C=C/CN5CCC(F)C5)CC4)c23)ccc1Oc1ccn2ncnc2c1` (stereo not drawn) [Example 164, (E)-1-(4-(4-((4-([1,2,4]triazolo[1,5-a]pyridin-7-yloxy)-3-methylphenyl)amino)pyrrolo[2,1-f][1,2,4]triazin-5-yl)piperidin-1-yl)-4-(3-fluoropyrrolidin-1-yl)but-2-en-1-one], the IC50 in test [1] was 1500 to 5000 nM; in test [2] it was less than 200 nM; in test [3], less than 200 nM.

As for `CO[C@H]1CN(C/C=C/C(=O)N2CC(c3ccn4ncnc(Nc5ccc(Oc6ccc7c(c6)ncn7C)c(C)c5)c34)C2)C[C@H]1OC` [Example 165, (E)-4-((3R,4S)-3,4-dimethoxypyrrolidin-1-yl)-1-(3-(4-((3-methyl-4-((1-methyl-1H-benzo[d]imidazol-5-yl)oxy)phenyl)amino)pyrrolo[2,1-f][1,2,4]triazin-5-yl)azetidin-1-yl)but-2-en-1-one], the IC50 is 1500 to 5000 nM in test [1], less than 200 nM in test [2] and less than 200 nM in test [3].

In the case of `CO[C@@H]1CN(C/C=C/C(=O)N2CC(c3ccn4ncnc(Nc5ccc(Oc6ccc7c(c6)ncn7C)c(C)c5)c34)C2)C[C@H]1OC` [Example 166, (E)-4-((3R,4R)-3,4-dimethoxypyrrolidin-1-yl)-1-(3-(4-((3-methyl-4-((1-methyl-1H-benzo[d]imidazol-5-yl)oxy)phenyl)amino)pyrrolo[2,1-f][1,2,4]triazin-5-yl)azetidin-1-yl)but-2-en-1-one], the half-inhibitory concentration (IC50) is 1500 to 5000 nM in test [1], less than 200 nM in test [2] and less than 200 nM in test [3].

As for `CO[C@H]1CN(C/C=C/C(=O)N2CCC(c3ccn4ncnc(Nc5ccc(Oc6ccc7c(c6)ncn7C)c(C)c5)c34)CC2)C[C@H]1OC` [Example 167, (E)-4-((3R,4S)-3,4-dimethoxypyrrolidin-1-yl)-1-(4-(4-((3-methyl-4-((1-methyl-1H-benzo[d]imidazol-5-yl)oxy)phenyl)amino)pyrrolo[2,1-f][1,2,4]triazin-5-yl)piperidin-1-yl)but-2-en-1-one], the IC50 in test [1] was 1500 to 5000 nM; in test [2], less than 200 nM; in test [3], less than 200 nM.

Turning to `CO[C@@H]1CN(C/C=C/C(=O)N2CCC(c3ccn4ncnc(Nc5ccc(Oc6ccc7c(c6)ncn7C)c(C)c5)c34)CC2)C[C@H]1OC` [Example 168, (E)-4-((3R,4R)-3,4-dimethoxypyrrolidin-1-yl)-1-(4-(4-((3-methyl-4-((1-methyl-1H-benzo[d]imidazol-5-yl)oxy)phenyl)amino)pyrrolo[2,1-f][1,2,4]triazin-5-yl)piperidin-1-yl)but-2-en-1-one], the IC50 in test [1] was 1500 to 5000 nM; in test [2], less than 200 nM; in test [3], less than 200 nM.

As for `CO[C@H]1CN(C/C=C/C(=O)N2CCC(c3ccn4ncnc(Nc5ccc(Oc6ccn7ncnc7c6)c(C)c5)c34)CC2)C[C@H]1OC` [Example 169, (E)-1-(4-(4-((4-([1,2,4]triazolo[1,5-a]pyridin-7-yloxy)-3-methylphenyl)amino)pyrrolo[2,1-f][1,2,4]triazin-5-yl)piperidin-1-yl)-4-((3R,4S)-3,4-dimethoxypyrrolidin-1-yl)but-2-en-1-one], the values for the IC50 in test [1], in test [2] and in test [3] were 1500 to 5000 nM, less than 200 nM and less than 200 nM, respectively.

Turning to `CO[C@@H]1CN(C/C=C/C(=O)N2CCC(c3ccn4ncnc(Nc5ccc(Oc6ccn7ncnc7c6)c(C)c5)c34)CC2)C[C@H]1OC` [Example 170, (E)-1-(4-(4-((4-([1,2,4]triazolo[1,5-a]pyridin-7-yloxy)-3-methylphenyl)amino)pyrrolo[2,1-f][1,2,4]triazin-5-yl)piperidin-1-yl)-4-((3R,4R)-3,4-dimethoxypyrrolidin-1-yl)but-2-en-1-one], the IC50 was 1500 to 5000 nM in test [1], less than 200 nM in test [2] and less than 200 nM in test [3].

On to `Cc1cc(Nc2ncnn3ccc(C4(F)CCN(C(=O)/C=C/CN(C)C)CC4)c23)ccc1Oc1ccn2ncnc2c1` [Example 175, (E)-1-(4-(4-((4-([1,2,4]triazolo[1,5-a]pyridin-7-yloxy)-3-methylphenyl)amino)pyrrolo[2,1-f][1,2,4]triazin-5-yl)-4-fluoropiperidin-1-yl)-4-(dimethylamino)but-2-en-1-one], for which the IC50 in test [1], in test [2] and in test [3] was 1500 to 5000 nM each time.

Regarding `Cc1cc(Nc2ncnn3ccc(C4CCN(C(=O)/C=C/CN(C)C)CC4(F)F)c23)ccc1Oc1ccn2ncnc2c1` (stereo not drawn) [Example 176, (E)-1-(4-(4-((4-([1,2,4]triazolo[1,5-a]pyridin-7-yloxy)-3-methylphenyl)amino)pyrrolo[2,1-f][1,2,4]triazin-5-yl)-3,3-difluoropiperidin-1-yl)-4-(dimethylamino)but-2-en-1-one], the IC50 was 1500 to 5000 nM in test [1], less than 200 nM in test [2] and less than 200 nM in test [3].

For the compound `CNC/C=C/C(=O)N1CCC(c2ccn3ncnc(Nc4ccc(Oc5ccn6ncnc6c5)c(C)c4)c23)CC1` [Example 177, (E)-1-(4-(4-((4-([1,2,4]triazolo[1,5-a]pyridin-7-yloxy)-3-methylphenyl)amino)pyrrolo[2,1-f][1,2,4]triazin-5-yl)piperidin-1-yl)-4-(methylamino)but-2-en-1-one], the IC50 is 1500 to 5000 nM in test [1], less than 200 nM in test [2] and less than 200 nM in test [3].

As to `Cc1cc(Nc2ncnn3ccc(C(=O)NCCCN(C)C)c23)ccc1N` [Example 181, 4-((4-amino-3-methylphenyl)amino)-N-(3-(dimethylamino)propyl)pyrrolo[2,1-f][1,2,4]triazine-5-carboxamide], the IC50 in test [1] was greater than 5000 nM; in test [2] it was greater than 5000 nM; in test [3] it was 1500 to 5000 nM.
